Experimental data reported in US20230115176A1 (Ra Pharmaceuticals, Inc., priority 2019, published 2023).
In brackets after ≈: the same amount, converted by molar mass.

Key:
[1] = Kinetic solubility in PBS pH 7.4, HPLC-UV (Example 21, Table 27); assay type: physicochemical; conditions: phosphate buffered saline, aqueous buffer, kinetic from dmso stock, 0.5 M PBS, shaken minimum 24 h at approximately 25° C., HPLC-UV 270 nm
Summary of the method: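 10 mM DMSO stock diluted into 0.05 M PBS pH 7.4 (5% DMSO final), in triplicate, shaken ≥24 h at ~25 °C, then filtered by centrifugation. Supernatant concentration by HPLC-UV at 270 nm against external DMSO standards (15.6–500.0 μM).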

Human C5 [2] = molecular target: T1, Human C5 (Homo sapiens, UniProt P01031); experiment: Red blood cell (RBC) hemolysis assay, luminescent (Example 28, Table 32); assay type: cell-based; conditions: sheep EA cells, 1.5% C5-depleted human serum, 0.5 nM human C5, 1 hour at 37° C., luminescence (Table 32)
T1 construct: purchased Complement Technology
Procedure: Sheep red blood cells coated with rabbit anti-sheep erythrocyte antiserum (EA cells; Complement Technology, Tyler, Tex.) were used to assay compound inhibitory activity of the classical complement activation pathway. Briefly, the EA cells were washed once and resuspended in the same volume of GVB++ buffer (Complement Technology, Tyler, Tex.). 25 μL of EA cells were then distributed into each well of 384-well tissue culture plates using Apricot iPipette Pro (Apricot Designs; Covina, Calif.). Compounds were tested in 10 points of final concentrations ranging from 16.67 μM to 1.65 μM in a 6-fold titration series. Compounds were dispensed into 384-well plates from 6.7 mM and 3.35 μM DMSO working stocks using an HP Digital Dispenser (HP; Corvallis, Oreg.). The reactions also contained 1.5% (v/v) C5-depleted human serum (Complement Technology). Hemolysis was induced by addition of human C5 (Complement Technology) at a concentration of 0.5 nM and plates were incubated for 1 hour at 37° C. in a cell culture incubator. The extent of hemolysis was measured by ability of released hemoglobin to catalyze luminol in the presence of hydrogen peroxide. Luminescence was then measured using a plate reader. Luminescence measurements were used to prepare a dose-response curve. From the curve, the half maximal inhibitory concentration (IC50) for each compound was determined, where the IC50 represents the concentration of each compound needed to reduce red blood cell hemolysis by half.

[3] = molecular target: human C5 complement protein (Homo sapiens, UniProt P01031); experiment: Surface plasmon resonance (SPR), immobilized human C5, 37° C. (Example 27, Table 31); assay type: binding; conditions: lowest value obtained where a range of concentrations was analyzed (Table 31)
Human C5 [4] = molecular target: T1, Human C5; experiment: Surface plasmon resonance (SPR), compounds on immobilized human C5 (Example 2, Table 5); assay type: binding; conditions: lowest value where a range of compound concentrations were analyzed
Procedure: Surface plasmon resonance (SPR) technology was used to evaluate affinity, specificity, and kinetics of interactions between compounds and complement protein C5 in real time without the need for labeling.
SensiQ FE SPR system (SensiQ Technologies, Oklahoma City, Okla.) was used to provide sensitive and accurate detection of binding of small molecules to the very large C5 protein (MW=195,000 Da). The chip was prepared by preconditioning the sensor according to the protocol of the SensiQ FE using 10 mM HCl, 50 mM NAOH and 0.1% SDS. The sensor chip was activated by using a mixture of fresh EDAC (1-ethyl-3-(-3-dimethylaminopropyl) carbodiimide) (Sigma Co., St. Louis, Mo.) and NHS (N-hydroxy succinimide) (Sigma Co., St. Louis, Mo.). Human C5 was surface immobilized to a Pioneer Biosensor chip via random amine coupling (>12,000 RU) which makes use of the N-terminus and ε-amino groups of lysine residues of the protein ligand. Immobilization was done by injecting 30-40 μg/ml C5 in 10 mM NaAc pH 4.5 onto designated channels at a rate of 10 μL/minute for 12 minutes, targeting RL>12000 RU for small molecules.
Compounds were diluted in DMSO in a format of 100-fold final concentration and 3-fold serial dilution (5 or 6 dilutions). The 100-fold compounds were transferred to one-fold DMSO-free assay buffer in the 96-well test plate. The compound solution was injected at a rate of 60 μL/minute for 30-60 seconds, followed by 60-90 seconds dissociation time, buffer flushing and/or priming. Blank solution (1% DMSO assay buffer) was run for every 6 injections of compounds. Double reference by subtracting both blank channel and reference channel was applied for data processing. Titration of C5 binding compounds to the C5-immobilized biosensor chip surface led to interactions between C5 and potential binders, and the resulting changes of surface refractive index were sensitively measured by the system.
SPR data were analyzed with the managing software provided by SensiQ and equilibrium dissociation constant (KD) values were determined for each compound. Where a range of compound concentrations were analyzed, the lowest value obtained is presented.

purified human C5 = purified human C5 (Homo sapiens, UniProt P01031); experiment: Red blood cell hemolysis assay, optical, absorbance 412 nm (Example 3, Table 6); assay type: cell-based; conditions: antibody-sensitized sheep erythrocytes, 1.5% human C5 depleted sera, 0.5 nM human C5; average where replicates
Procedure: Experiments were carried out using a red blood cell (RBC) hemolysis assay to assess compound inhibition of RBC lysis. […] The assay was carried out using 1.5% human C5 depleted sera and 0.5 nM purified human C5.
GVB++ buffer (Complement Technology, Tyler, Tex.) was heated at 37° C. for a minimum of 20 minutes. The human C5 depleted sera and purified human C5 were rapidly thawed at 37° C. and then stored on ice or wet ice, respectively. The compound stock (10 mM, DMSO) was serially diluted in 100% DMSO to obtain ten 6-fold dilutions before addition of GVB++. Sera dilution was prepared by adding 5 mL of GVB++ to a 15 mL conical tube, removing 600 μL of the GVB++ and adding 600 μL of the 100% sera. The tube was mixed by inverting three times. A volume of 25 μL of the diluted sera was added to each well so that the final concentration of sera in the well was 1.5%. C5 dilution was prepared by adding 5 mL of GVB++ to a 15 mL conical tube, removing 4 μL of the GVB++ and adding 4 μL of the C5 stock. The tube was mixed by inverting three times. A volume of 25 μL was added to each well so that the final amount of C5 was 0.5 nM in each well. The antibody-sensitized sheep erythrocytes (EAs) were centrifuged at 1,000× gravity at 22° C. for 3 minutes. The supernatant was pipetted off without disrupting the pellet. The pellet was then resuspended in GVB++ with the same volume removed. Resuspended EAs were mixed by gently inverting the tube.
Five controls were run on each plate: (1) EAs only=100 μL EAs+50 μL GVB++ with 4% DMSO+50 μL GVB++; (2) EA+Sera=100 μL EAs+50 μL GVB++ with 4% DMSO+25 μL Sera dilution+25 μL GVB++; (3) EA+C5=100 μL EAs+50 μL GVB++ with 4% DMSO+25 μL C5 dilution+25 μL GVB++; (4) EA+Sera+C5=100 μL EAs+50 μL GVB++ with 4% DMSO+25 μL Sera dilution+25 μL C5; (5) GVB++ Only=200 μL GVB++. Other wells included: GVB++ with 4% DMSO=20 μL DMSO+480 μL GVB++. All samples were analyzed in duplicate. The compound dose response curve was generated using samples prepared with 100 μL EA+50 μL compound dilution+25 μL C5 dilution+25 μL sera dilution.
Test plates were prepared by adding 100 μL of EAs, 50 μL of compound dilution, 25 μL of sera dilution, and 25 μL of C5 dilution to individual wells of a 96-well tissue culture-treated clear microtitre plate (USA Scientific, Ocala, Fla.) and resuspending by pipetting up and down three times. The samples were incubated at 37° C. for one hour. At the completion of the incubation, the plates were centrifuged at 1,000× gravity for 3 minutes. 100 μl of supernatant were transferred to a new plate and the absorbance was read at 412 nm. Data was fit with a log-logit formula producing a dose-response curve and IC50.
“IC50” refers to the half maximal inhibitory concentration, where the value is the concentration of the inhibitor needed to reduce red blood cell hemolysis by half. Where replicate analysis was conducted, average IC50 values are provided along with standard deviation (SD) values.

Human C5 [5] = molecular target: T1, Human C5; experiment: Hemolysis assay, luminescent, classical complement pathway (Example 4, Table 7); assay type: cell-based; conditions: sheep EA cells, 1.5% C5-depleted human serum, 0.5 nM human C5, luminescence readout
Source text: Numbers in parenthesis following the compound number indicate alternate enantiomers (as distinguished by retention time during chromatographical separation).

purified human C5, sequence (P01031 19-1676): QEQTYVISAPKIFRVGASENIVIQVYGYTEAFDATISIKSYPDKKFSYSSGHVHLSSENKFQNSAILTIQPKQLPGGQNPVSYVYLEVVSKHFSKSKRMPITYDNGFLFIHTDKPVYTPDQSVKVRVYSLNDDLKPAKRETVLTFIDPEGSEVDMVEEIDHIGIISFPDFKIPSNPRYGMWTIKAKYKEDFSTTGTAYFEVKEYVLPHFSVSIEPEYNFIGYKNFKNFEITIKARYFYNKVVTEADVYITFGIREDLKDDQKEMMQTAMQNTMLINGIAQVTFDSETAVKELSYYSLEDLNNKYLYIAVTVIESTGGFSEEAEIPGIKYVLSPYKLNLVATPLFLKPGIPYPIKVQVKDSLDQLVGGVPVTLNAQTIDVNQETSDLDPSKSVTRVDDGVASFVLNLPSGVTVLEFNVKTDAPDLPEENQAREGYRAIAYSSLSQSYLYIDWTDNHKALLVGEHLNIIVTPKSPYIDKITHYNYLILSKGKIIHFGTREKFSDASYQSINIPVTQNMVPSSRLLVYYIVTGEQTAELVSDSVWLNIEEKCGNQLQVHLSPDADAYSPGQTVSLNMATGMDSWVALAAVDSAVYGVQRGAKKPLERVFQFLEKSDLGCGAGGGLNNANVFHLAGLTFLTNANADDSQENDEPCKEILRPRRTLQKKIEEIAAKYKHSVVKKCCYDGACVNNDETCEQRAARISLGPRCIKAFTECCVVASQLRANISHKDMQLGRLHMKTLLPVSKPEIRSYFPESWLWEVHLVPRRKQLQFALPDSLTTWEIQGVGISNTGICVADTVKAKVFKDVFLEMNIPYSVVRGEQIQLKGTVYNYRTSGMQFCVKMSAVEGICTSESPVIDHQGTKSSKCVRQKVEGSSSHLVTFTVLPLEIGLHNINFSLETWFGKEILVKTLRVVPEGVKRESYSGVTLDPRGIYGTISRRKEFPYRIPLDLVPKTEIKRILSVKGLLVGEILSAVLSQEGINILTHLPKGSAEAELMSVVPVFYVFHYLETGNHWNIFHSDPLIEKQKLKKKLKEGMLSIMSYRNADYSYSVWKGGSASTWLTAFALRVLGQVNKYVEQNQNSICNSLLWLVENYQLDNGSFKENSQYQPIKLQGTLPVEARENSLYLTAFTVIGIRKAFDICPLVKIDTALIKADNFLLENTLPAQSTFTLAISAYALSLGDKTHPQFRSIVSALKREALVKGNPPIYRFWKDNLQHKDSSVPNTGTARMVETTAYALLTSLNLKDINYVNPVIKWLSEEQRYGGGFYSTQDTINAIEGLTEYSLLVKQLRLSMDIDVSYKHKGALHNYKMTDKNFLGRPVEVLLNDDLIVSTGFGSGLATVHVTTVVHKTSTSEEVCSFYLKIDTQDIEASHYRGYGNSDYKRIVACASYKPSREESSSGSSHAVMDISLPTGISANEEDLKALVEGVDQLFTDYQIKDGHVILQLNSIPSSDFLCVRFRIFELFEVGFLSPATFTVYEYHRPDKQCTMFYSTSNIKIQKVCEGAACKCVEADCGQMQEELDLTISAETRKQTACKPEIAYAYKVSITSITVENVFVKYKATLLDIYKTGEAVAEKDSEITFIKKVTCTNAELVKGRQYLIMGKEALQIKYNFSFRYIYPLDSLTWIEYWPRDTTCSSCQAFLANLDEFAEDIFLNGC
T1 sequence (P01031 19-1676): as above
human C5 complement protein, sequence (P01031 19-1676): as above

| Structure (SMILES) | IC50 (Human C5 [5]) | also measured |
| --- | --- | --- |
| CCCCCOc1cc(N2CC(CO)CN(Cc3ccc(CC(=O)N4CCOCC4)cc3OC)C2=O)ccc1OC (stereo not shown) [SC0183] | – | solubility kinetic [1]: > 500 µM; IC50 (Human C5 [2]): 5.3 nM; Kd [3]: 3.88 nM |
| CCCCCOc1cc(N2CC(CO)CN(Cc3ccc(CC(=O)N4CCCC4)cc3OC)C2=O)ccc1OC (stereo not shown) [SC0184] | – | solubility kinetic [1]: 411 µM (≈ 228 µg/mL); IC50 (Human C5 [2]): 5.7 nM; Kd [3]: 2.94 nM |
| COc1ccc(NC(=O)N[C@@H](CO)c2ccccc2OC)cc1OCCCC(C)C [SM0002] | 11.9 nM | Kd (Human C5 [4]): 14 nM; IC50 (purified human C5): 21.9 nM |
| COc1ccccc1CNC(=O)Nc1ccc(OC)c(OCCCC(C)C)c1 [SM0006] | 37.6 nM | Kd (Human C5 [4]): 18 nM; IC50 (purified human C5): 125 nM |
| CCCCOc1cc(NC(=O)N[C@@H](CO)c2ccccc2)ccc1OC [SM0035] | 328 nM | IC50 (purified human C5): 1180 nM |
| COc1ccc(NC(=O)NCc2ccccc2OC(F)F)cc1OCCCC(C)C [SM0104] | 558 nM | Kd (Human C5 [4]): 210 nM |
| C#CC(=O)NCc1cc(OC)c(OCCCCC)cc1NC(=O)N1CCC[C@@H]1c1ccccc1Cl [SM0201] | 89.5 nM | – |
| CCCCCOc1cc(NC(=O)N2CCC[C@@H]2c2ccccc2Cl)c(CNC(=O)/C=C/CN(C)C)cc1OC [SM0202] | 240 nM | – |
| CCCCCOc1cc(NC(=O)N2CCC[C@@H]2c2ccccc2Cl)c(CNC(=O)CCl)cc1OC [SM0203] | 255 nM | – |
| CCCCCOc1cc(NC(=O)N(CC(=O)O)Cc2cc(F)ccc2OC)ccc1OC [SM0204] | 753 nM | – |
| CCCCCOc1cc(NC(=O)N(CC(=O)NCc2cccnc2)Cc2cc(F)ccc2OC)ccc1OC [SM0205] | 1290 nM | – |
| CCCCCOc1cc(NC(=O)N(CC(=O)NCCN2CCCC2)Cc2cc(F)ccc2OC)ccc1OC [SM0206] | 2060 nM | – |
| CCCCCOc1cc(NC(=O)N(CC(=O)NCC2CC(=O)N(C)C2)Cc2cc(F)ccc2OC)ccc1OC (stereo not shown) [SM0208] | 914 nM | – |
| CCCCCOc1cc(NC(=O)N(CC(=O)NC2CCN(C(C)=O)CC2)Cc2cc(F)ccc2OC)ccc1OC [SM0209] | 1140 nM | – |
| CCCCCOc1cc(NC(=O)N(CC(=O)N2CCOCC2)Cc2cc(F)ccc2OC)ccc1OC [SM0210] | 2120 nM | – |
| CCCCCOc1cc(NC(=O)N(CC(=O)N(C)C)Cc2cc(F)ccc2OC)ccc1OC [SM0211] | 1910 nM | – |
| CCCCCOc1cc(NC(=O)N(CC(=O)NC)Cc2cc(F)ccc2OC)ccc1OC [SM0212] | 867 nM | – |
| CCCCCOc1cc(NC(=O)N(CC(N)=O)Cc2cc(F)ccc2OC)ccc1OC [SM0213] | 903 nM | – |
| CCCCCOc1cc(NC(=O)N(CCC(=O)O)Cc2cc(F)ccc2OC)ccc1OC [SM0214] | 175 nM | – |
| CCCCCOc1cc(NC(=O)N(CCC(=O)NCc2ccncc2)Cc2cc(F)ccc2OC)ccc1OC [SM0215] | 244 nM | – |
| CCCCCOc1cc(NC(=O)N(CCC(=O)N(C)C)Cc2cc(F)ccc2OC)ccc1OC [SM0216] | 199 nM | – |
| CCCCCOc1cc(NC(=O)N(CCOCc2cn(C)cn2)Cc2cc(F)ccc2OC)ccc1OC [SM0217] | 210 nM | – |
| COc1ccc(NC(=O)N[C@H]2COC(C)(C)Oc3c(OC)cccc32)cc1OCCCC(C)C [SM0218] | 48.6 nM | – |
| CCCCCOc1cc(NC(=O)NCc2ccc(Br)cc2OC)ccc1OC [SM0219] | 239 nM | – |
